From patent US20100021895A1, “Vectors for Inducing Homozygous Mutations and Methods of Using Same” (priority 2006, published 2010)

System: mouse embryonic stem cell clones, each containing a neomycin resistance gene (Neo) inserted by the GTR1.3 gene trap retrovirus
Test: Carcinogen-induced LOH: frequency of colony formation in 2.0 mg/ml G418
Type: cell-based
Conditions: for fold increase of frequency of colony formation: 2 mg/ml G418 0.25 mM HU
Description: Carcinogen-induced LOH was measured in a panel of 53 mouse embryonic stem cell clones, each containing a neomycin resistance gene (Neo) inserted into a different cellular gene (FIG. 9) by the GTR1.3 gene trap retrovirus. Gene entrapment by GTR1.3 involves selection for inserted Neo sequences that can splice to the 3′ ends of cellular genes (Lin et al.,). The disrupted genes were identified by sequencing Neo-gene fusion transcripts and were localized on the mouse genome. Previous studies have shown that cells homozygous for GTR1.3-induced mutations can be selected from heterozygous cells simply by selecting for resistance to higher concentrations of G418, a method first shown to select for homozygous mutations induced by gene targeting (15). Mitotic recombination appears to be the preferred mechanism of spontaneous LOH involving Neo genes inserted in ES cells (17) and LOH involving other genes and cell types in vivo (12, 13). LOH doubles the number of Neo genes per cell and thus allows moderately resistant cells to acquire resistance to higher concentrations of G418. The frequencies of spontaneous LOH measured at the 53 different sites ranged from 1.3×10^−5 to 1.2×10^−4 (Table 3), similar to those reported for other inserted neomycin resistance genes (15, 17) in ES cells and for loci such as TK and APRT in other cell types (12, 13).
A variety of chemical agents were tested for their ability to enhance the frequencies at which mutant cells survive in 2.0 mg/ml G418. Methyl-nitrosurea (MNU) is an alkylating agent that produces a variety of mono-methylated DNA adducts, hydroxyurea (HU) stalls DNA replication complexes, doxorubicin interferes with DNA synthesis, methothrexate is a competitive inhibitor of dihydrofolate reductase but is not genotoxic, diepoxybutane and mitomycin C induce inter-strand DNA crosslinks, UV irradiation causes intra- and inter-strand pyrimidine dimmers, and ethidium bromide intercalates between DNA strands to damage DNA (For additional information about these agents see http://toxnet.nlm.nih.gov and http://lisntweb.swan.ac.uk/cmgt/index.htm). […] The fold-increase for MNU and HU ranged from 39-123 and 18-68, respectively (Table 3). The optimal concentrations of each agent to stimulate colony formation with minimal toxicity (<5% loss of cell viability) were determined in advance (FIG. 13). […] Each of these agents was tested two or more times on at least 25 entrapment lines.
Serially diluted cells were plated onto 150 mm plates containing drug-free media and allowed to attach overnight. Unattached cells were removed and media containing the indicated concentrations of methyl-nitrosourea, hydroxyurea, ethidium bromide, doxorubicin, methotrexate, diepoxybutane, or mitomycin C was put onto cells for 4 hours (or cells were exposed to ultraviolet light in the absence of media and allowed to recover in drug-free media for 4 hours). Cells were then rinsed twice with drug-free media and selection media containing 0.0, 0.3, or 2.0 mg/ml G418 was put onto cells. After 12 days of selection, the number of colonies surviving was counted and the frequency of colony formation was determined by dividing the number of colonies obtained from 2.0 mg/ml G418 selection to that obtained from parallel experiments with 0.3 mg/ml G418 selection. TK gene loss was assessed following selection in media containing 2 μg/ml gancyclovir.
Table 3. The frequency of colony formation in high concentrations of G418. The frequency of colony formation is listed for all 53 clones examined. Frequency was determined by dividing the number of colonies surviving 2.0 mg/ml G418 selection to the number surviving parallel experiments with 0.3 mg/ml G418 selection, and is the average of at least 3 independent experiments for each clone. Standard deviations, which ranged from 5 to 70% of the mean values, have been omitted for clarity. […]

SMILES: NC(=O)NO [HU, hydroxyurea]
- fold-increase of colonies surviving in high G418, range over clones (0.25 mM HU, Table 3 clones): 18-68 fold
- number of colonies surviving in high G418 (0.5 mM MNU or 0.25 mM HU (FIG. 10)): dramatically increased
- fold increase of frequency of colony formation (clone b2p1-a5 (12C3)): (+35-fold)
- fold increase of frequency of colony formation (clone b2p1-a9 (2H1)): (+36-fold)
- fold increase of frequency of colony formation (clone b2p1-b4 (9E1)): (+32-fold)
- fold increase of frequency of colony formation (clone b2p1-b9 (4B1)): (+38-fold)
- fold increase of frequency of colony formation (clone b2p1-c6 (19A)): (+22-fold)
- fold increase of frequency of colony formation (clone b2p1-d3 (19C1)): (+28-fold)
- fold increase of frequency of colony formation (clone b2p1-d8 (4D2.3)): (+40-fold)
- fold increase of frequency of colony formation (clone b2p1-d9 (7E3)): (+38-fold)
- fold increase of frequency of colony formation (clone b2p1-d10 (9A1)): (+19-fold)
- fold increase of frequency of colony formation (clone b2p1-e3 (4D2.3)): (+32-fold)
- fold increase of frequency of colony formation (clone b2p1-e10 (19C1)): (+25-fold)
- fold increase of frequency of colony formation (clone b2p1-f3 (17E1.3)): (+47-fold)
- fold increase of frequency of colony formation (clone b2p1-f10 (3F2.1)): (+33-fold)
- fold increase of frequency of colony formation (clone b2p1-f12 (1H5)): (+25-fold)
- fold increase of frequency of colony formation (clone b2p1-h1 (7A2)): (+21-fold)
- fold increase of frequency of colony formation (clone b2p1-h5 (1H5)): (+42-fold)
- fold increase of frequency of colony formation (clone b2p1-h8 (6A3.3)): (+42-fold)
- fold increase of frequency of colony formation (clone b3p1-h1 (18E2)): (+42-fold)
- fold increase of frequency of colony formation (clone b3p3-a4 (4A5)): (+33-fold)
- fold increase of frequency of colony formation (clone b3p3-a9 (4A5)): (+18-fold)
- fold increase of frequency of colony formation (clone b3p3-b6 (3F1)): (+18-fold)
- fold increase of frequency of colony formation (clone b3p3-c8 (14A3)): (+32-fold)
- fold increase of frequency of colony formation (clone b3p3-c12 (5G2)): (+20-fold)
- fold increase of frequency of colony formation (clone b3p3-d4 (1C3)): (+28-fold)
- fold increase of frequency of colony formation (clone b3p3-d8 (1C2)): (+68-fold)
- fold increase of frequency of colony formation (clone b3p3-d9 (4E2)): (+22-fold)
- fold increase of frequency of colony formation (clone b3p3-g6 (10C2)): (+29-fold)
- fold increase of frequency of colony formation (clone b3p3-g10 (4E1)): (+24-fold)
- fold increase of frequency of colony formation (clone b3p3-h2 (19C1)): (+26-fold)
- fold increase of frequency of colony formation (clone b3p3-h4 (5E2)): (+50-fold)
- fold increase of frequency of colony formation (clone b3p3-h8 (19A)): (+37-fold)
- fold increase of frequency of colony formation (clone b3p4-a1 (4A4)): (+25-fold)
- fold increase of frequency of colony formation (clone b3p4-a5 (3B)): (+36-fold)
- fold increase of frequency of colony formation (clone b3p4-b1 (3A2)): (+44-fold)
- fold increase of frequency of colony formation (clone b3p4-b2 (11B1.3)): (+40-fold)
- fold increase of frequency of colony formation (clone b3p4-b8 (4C6)): (+27-fold)
- fold increase of frequency of colony formation (clone b3p4-b12 (3A1)): (+24-fold)
- fold increase of frequency of colony formation (clone b3p4-c1 (17B3)): (+50-fold)
- fold increase of frequency of colony formation (clone b3p4-c2 (8C3)): (+50-fold)
- fold increase of frequency of colony formation (clone b3p4-c9 (15F2)): (+20-fold)
- fold increase of frequency of colony formation (clone b3p4-c12 (17E2)): (+33-fold)
- fold increase of frequency of colony formation (clone b3p4-d10 (14E5)): (+54-fold)
- fold increase of frequency of colony formation (clone b3p4-d12 (1C3)): (+51-fold)
- fold increase of frequency of colony formation (clone b3p4-e1 (2G3)): (+32-fold)
- fold increase of frequency of colony formation (clone b3p4-e3 (15D3)): (+41-fold)
- fold increase of frequency of colony formation (clone b3p4-e7 (12C1)): (+44-fold)
- fold increase of frequency of colony formation (clone b3p4-f2 (4E1)): (+36-fold)
- fold increase of frequency of colony formation (clone b3p4-f6 (7E3)): (+26-fold)
- fold increase of frequency of colony formation (clone b3p4-f10 (8A4)): (+36-fold)
- fold increase of frequency of colony formation (clone b3p4-g3 (1C3)): (+34-fold)
- fold increase of frequency of colony formation (clone b3p4-g8 (10C1)): (+34-fold)
- fold increase of frequency of colony formation (clone b3p4-g9 (2C2)): (+32-fold)
- fold increase of frequency of colony formation (clone b3p4-h11 (8A1.1)): (+33-fold)
- survival of mutant ES cells in media containing 2.0 mg/ml G418 (ES cells heterozygous for Xrcc5 entrapment mutation, 4 hours with 0.5 mM methyl-nitrosourea, 0.25 mM hydroxyurea or 100 ng/ml diepoxybutane): enhances the survival
- overall extent of LOH induced (single exposure to non-toxic levels): ~1 % of the genome
